Entries after “also recorded” stand apart in the source; their conditions may differ.
How the values were obtained:
[1] = system: injured bovine articular cartilage explants in inflammatory medium; assay: Drop tower model: GAG degradation in injured cartilage explants; assay type: cell-based; design: inhibition of GAG release vs no treatment explant: dose or concentration left out as unconfirmed; settings: for Inhibition of GAG degradation (in words): Table 4, injured cartilage explants, inflammatory conditions; for efficacy in inhibiting GAG release (in words): drop tower model; for Inhibition of GAG degradation: at 0.1-1 μM
Source text: In order to assess cartilage breakdown by inflammatory mediators and the effect of antagonists on those mediators, a cartilage impact model (the “drop tower model”) was established using a drop tower device to apply a peak compressive stress to a cartilage sample of about 20-30 MPa over an area of about 11-15 mm^2. Advantages of this model included its clinical relevance due to its potential to mimic several key parameters of osteoarthritis such as inflammatory cell mediators (by co-culturing with inflammatory cells), and induction of trauma to create the cartilage damage.
In the “drop tower design model” cartilage explants were first injured and then cultured in inflammatory medium to mimic the progression of joint impact trauma linked to cartilage degeneration and osteoarthritis. The approach of the model is to artificially produce cellular damage without gross structural alterations, and to determine how the cells respond to such an insult over the ensuing days when treated with or without potential therapeutic agents.
The device comprises a vertical rail that guides a sliding weight from 0.1 kg to 3 kg directly onto a force transducer which is situated at the bottom of the device. A sphere-shaped 2 mm indenter resting on a specimen is located at the bottom of the vertical rail. The indenter is held by a stop screw. The specimen is rigidly attached to a tissue holder underneath the indenter, to avoid side movements, the specimen is rigidly attached to the tissue holder. In this manner, the force transducer transduces a force indirectly onto the specimen. Adjusting the weight of a mass and height from which the mass drops varies the magnitude of the intended impact. For example, a weight mass (e.g., […]) held by a weight holder can be released from a height of e.g., 36 cm and dropped onto the force transducer.
Samples for compound evaluation were tested using either of two different methods to induce inflammatory conditions. One method utilized media conditioned from peripheral blood mononuclear cells (PBMCs) stimulated with LPS (“+LPS”) or non-inflammatory media without LPS (“−LPS”). Another method utilized the absence or presence of a cocktail of cytokines.
In the first method, bovine or human PBMCs were freshly prepared using Ficoll gradient by Lampire Biological Laboratories, Inc. PBMCs in RPMI w/10% FCS at delivery were spun down at 1500 rpm for twenty minutes and the cell pellet was washed twice with 1×PBS to wash off the residual Ficoll. The cells were then resuspended at a density of 1×10^6/ml in RPMI supplemented with 10% FCS, 1× Antibiotics-Antimycotics. The suspension was divided into two aliquots. One aliquot was stimulated with 10 μg/ml of LPS and the other was not stimulated. Both aliquots were then incubated at 37° C., 5% CO2 for twenty-four to seventy-two hours. The conditioned media with or without LPS stimulation are collected, aliquoted, and stored in −80° C. for a maximum of three months. Each conditioned medium was assessed for levels of pro-inflammatory cytokines to ensure their secretion from PBMC. A representative cytokine, IL-6, was assayed by ELISA using a Human IL-6 Quantikine kit and it was shown that the LPS-stimulated medium had at least 10 ng/ml of IL-6, while IL-6 was undetectable in the unstimulated medium.
In the second method, the explants were cultured at 37° C., 5% CO2 either in stimulated or non-stimulated conditioned medium as described above or in defined medium containing DMEM supplemented with 1% FCS, 1× insulin-transferrin-sodium selenite media supplement and Antibiotics-Antimycotics in the presence or absence of a cocktail of cytokines containing 10 ng/ml of IL-1β, 100 ng/ml of TNFα and 5 ng/ml of IFN-γ. The compounds were solubilized in H2O, Ethanol or DMSO (10^−2 M) according to suppliers' instructions and further diluted with either conditioned medium stimulated with or without LPS to the required concentrations. DMSO concentrations in the culture media never exceeded 1%. […]

[2] = system: bovine chondrocyte pellets / ARC tissues stimulated with IL-1β; assay: Chondrocyte pellet / ARC culture model: GAG degradation assay; assay type: cell-based; settings: for concentration as low as which proteoglycan degradation was inhibited: chondrocyte pellets, 10 ng/ml IL-1β, five days; for effect on IL-1β-stimulated GAG degradation/release (in words): chondrocyte pellet / ARC model; for GAG Release, Pellet Assay (in words): Table 3B
Source text: A chondrocyte pellet culture model was developed for in vitro high throughput screening of therapeutic compounds for inhibition of IL-1β-stimulated matrix degradation. The chondrocyte pellet culture model can be used to detect various potential therapeutic compounds effective in blocking different processes caused by IL-1β stimulation. For example, IL-1β stimulation results in increased glycosaminoglycan (GAG) degradation, prostaglandin E2 (PGE2) synthesis and total nitrite/nitrate production. Compounds with different mechanisms of action may inhibit the increase of one or two or all three of these parameters. For this reason, screening by, for example, measuring only GAG release would be limited to detection of a specific class of inhibitors and may not detect compounds with diversified mechanisms of function which may be involved in inhibition of the IL-1 stimulated inflammatory process. The development of the chondrocyte pellet culture assay system in a 96-well plate made possible large-scale screening of potential therapeutic compounds with different mechanisms of action.
Calf articular cartilage was obtained from the knee joints of eight to twelve month old animals and was processed within twenty-four hours after sacrifice. After removal of muscle and ligament, the cartilage was kept moist using phosphate buffer solution (PBS) to prevent tissue dehydration, and was aseptically peeled off from subchondral bone with a scalpel, and the cartilage pieces were further minced into smaller pieces (˜0.3-0.5×˜0.2-0.5 cm cubes). […] Chondrocytes were then enzymatically isolated from the tissue by incubation for overnight at 37° C. with gentle agitation in 0.2% collagenase in Dulbecco's modified eagle media (DMEM). After removal of tissue debris by filtration through cell strainer and the residual collagenase by 3× wash in PBS, cells were finally resuspended at a density of 2.5×10^6 cells/ml in chondrocyte medium. A 1 ml aliquot of the cell suspension was dispensed into either a 15 ml Falcon centrifuge tube or a 96 deep-well plate and centrifuged at 2000×g for five minutes. The chondrocyte pellets were incubated at 37° C. in a humidified atmosphere of 5% CO2 for two to three weeks with a medium change every other day.
As an alternative to using calf articular cartilage, a commercial Aliginate Recovered Chondrocytes (ARC) system was also used (Articular Engineering, LLC (Northbrook, Ill.)). Use of the commercial system cut down on labor and time in producing chondrocyte pellet. This system produced cartilaginous tissue in vitro using bovine chondrocytes. The first step consisted of culturing chondrocytes in alginate under conditions optimal for the formation of a cell-associated matrix (CM). The second step allowed these cells with their CM, after recovery, to rapidly form and become integrated into a solid mass of cartilage on a porous insert within two weeks.
This tissue is rich in cells surrounded by a cell-associated matrix that is degraded rapidly when the cells are exposed to IL-1. ARC tissues in 3 mm punches at delivery were first dispensed into a 96 deep-well plate, one punch per well, for compound treatment. The subsequent procedures were the same as those used for the chondrocyte pellets.
Chondrocyte pellets were washed once with 1 ml of Chondrocyte Stimulation Medium and equilibrated in the same medium at room temperature for fifteen to thirty minutes. Compounds were dissolved in H2O, Ethanol or dimethyl sulfoxide (DMSO) (10^−2 M) according to suppliers' instructions and further diluted with Chondrocyte Stimulation Medium to the required concentrations. DMSO concentrations in the culture media should not exceed 1%; this concentration of DMSO has no effect on cartilage proteoglycan metabolism in response to cytokines.
The pellets were first treated with compounds at desired concentrations at 37° C. for one hour and then incubated for three to five days in the absence or presence of 10 ng/ml of IL-1β. […]

[3] = Bos taurus, Chondrocyte, read-out: GAG Release (inhibition), Pellet Assay
[4] = Bos taurus, injured cartilage explants

Question: CC(=O)Oc1cccc2c1C(=O)c1c(OC(C)=O)cc(C(=O)O)cc1C2=O [Diacerein, reference compound] was tested. Which inhibition at 54 µM ([1]; Bos taurus, at 54 μM, injured cartilage explants) did it give?
Answer: 100%

Question: What about the “proteoglycan degradation in injured cartilage induced by inflammatory mediators (in words)” value ([1]; at high dosage, LPS-stimulated PBMC conditioned medium, five days) of the same compound?
Answer: completely inhibited

Question: What about the “concentration as low as which proteoglycan degradation was inhibited” value [2] of the same compound?
Answer: 0.054 µM

Question: What about the “inhibitory effect for GAG vs lower concentrations (in words)” value ([2]; diacerein at 5.4 μM, rhein at 3.5 μM) of the same compound?
Answer: weaker inhibitory effect

Question: Which results are given for OCCC#Cc1nc(-c2ccc(F)cc2)c(-c2ccncc2)n1CCCc1ccccc1 [JNJ 3026582 (RWJ 67657), 4-[4-(4-fluorophenyl)-1-(3-phenylpropyl)-5-(4-pyridinyl)-1H-imidazol-2-yl]-3-butyn-1-ol]?
Answer: Inhibition of GAG degradation (in words) [1]: little; efficacy in inhibiting GAG release (in words) [1]: little efficacy; inhibition at 10 µM [2, 3]: ~90%; effect on IL-1β-stimulated GAG degradation/release (in words) [2]: significantly inhibited; also recorded: significant effect

Question: Which results are given for C[C@H](Nc1nccc(-c2c(-c3ccc(F)cc3)nc3nc(N)ccn23)n1)c1ccccc1 [JNJ 7583979 (RWJ 351958)]?
Answer: Inhibition of GAG degradation (in words) [1]: little; efficacy in inhibiting GAG release (in words) [1]: little efficacy; inhibition at 1 µM ([2]; Bos taurus, Chondrocyte, at 1 μM, read-out: GAG Release (inhibition), Pellet Assay): 10%; inhibition at 10 µM [2, 3]: 64%; effect on IL-1β-stimulated GAG degradation/release (in words) [2]: significantly inhibited; also recorded: significant effect

Question: How did the “GAG Release, Pellet Assay (in words)” value [2] turn out when CC(=O)N1CCN(c2c(-c3ccncc3)c(-c3ccc(F)cc3)c(C#N)n2C)CC1 [JNJ 17089540 (RWJ 669307)] was run?
Answer: No effect

Question: And the “effect on IL-1β-stimulated GAG degradation/release (in words)” value [2]?
Answer: little effect

Question: Which results are given for CO[C@H]1C[C@@H]2CC[C@@H](C)[C@@](O)(O2)C(=O)C(=O)N2CCCC[C@H]2C(=O)O[C@H]([C@H](C)C[C@@H]2CC[C@@H](O)[C@H](OC)C2)CC(=O)[C@H](C)/C=C(\C)[C@@H](O)[C@@H](OC)C(=O)[C@H](C)C[C@H](C)/C=C/C=C/C=C/1C [Rapamycin, reference compound]?
Answer: Inhibition of GAG degradation ([1]; injured cartilage explants): 100% inh at 0.1-1 μM; inhibition of GAG release vs no treatment explant ([1]; five days): ~84%; inhibition at 10 µM [2, 3]: 50%

Question: Which results are given for O=C(O)c1cc(O)c2c(c1)C(=O)c1cccc(O)c1C2=O [Rhein, reference compound]?
Answer: inhibition at 35 µM ([1]; Bos taurus, at 35 μM, injured cartilage explants): 100%; concentration as low as which proteoglycan degradation was inhibited [2]: 0.035 µM

Question: For C[C@@H]1CN(Cc2ccc(F)cc2)[C@@H](C)CN1C(=O)c1cc2cc(C(=O)C(=O)N(C)C)[nH]c2cc1Cl [SCIO-282 (SD 282)], which “GAG Release, Pellet Assay (in words)” value [2] is on record?
Answer: No effect

Question: What about the “effect on IL-1β-stimulated GAG degradation/release (in words)” value [2] of the same compound?
Answer: little effect

Question: For C[C@@H]1CN(Cc2ccc(F)cc2)[C@@H](C)CN1C(=O)c1cc2c(C(=O)C(=O)N(C)C)cn(C)c2cc1Cl [SCIO-469 (SD 469)], which “GAG Release, Pellet Assay (in words)” value [2] is on record?
Answer: No effect

Question: And the “effect on IL-1β-stimulated GAG degradation/release (in words)” value [2]?
Answer: no effect

Question: Which “Inhibition of GAG degradation” value ([1]; injured cartilage explants) does the source give for CC(C(=O)O)c1ccc(C(=O)c2cccs2)cc1 (stereo not drawn) [Suprofen, reference compound] here?
Answer: 100% inh at 0.1-1 μM

Question: What about the “GAG Release, Pellet Assay (in words)” value [2] of the same compound?
Answer: No effect

Question: With COc1ccc(-n2nc(CCC(=O)N(C)O)cc2-c2ccc(Cl)cc2)cc1 [Tepoxalin, reference compound] as the compound, how does the inhibition at 10 µM [1, 4] read?
Answer: 100%

Question: And the inhibition at 10 µM [2, 3]?
Answer: 15%

Question: With Cc1ccc(C(=O)c2ccc(CC(=O)O)n2C)cc1 [Tolmetin, reference compound] as the compound, how does the inhibition at 10 µM [1, 4] read?
Answer: 60%

Question: And the “GAG Release, Pellet Assay (in words)” value [2]?
Answer: No effect

Reference: patent US20090162351A1, “Transdiscal administration of inhibitors of p38 MAP kinase” (DePuy Spine, Inc., priority 2007, published 2009)
